Source: PubChem BioAssay (NCI)
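All cell lines were grown in 96-well plates and treated with compound for 48 hours. GI50 is the concentration that inhibits growth by half. TGI is the concentration that stops growth completely.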

Legend:
Assay in all cases: NCI anticancer screen, dose series, 48 h
[1] = test system: A498 renal
[2] = test system: BT-549 breast
[3] = test system: HCT-15 colon
[4] = test system: KM12 colon
[5] = test system: MALME-3M melanoma
[6] = test system: SR leukemia
[7] = test system: T-47D breast
[8] = test system: TK-10 renal
[9] = test system: U251 CNS
[10] = test system: SNB-75 CNS

SMILES | TGI [1] [µM] | TGI [2] [µM] | TGI [3] [µM] | TGI [4] [µM] | TGI [5] [µM] | TGI [6] [µM] | TGI [7] [µM] | TGI [8] [µM] | TGI [9] [µM] | TGI [10] [µM] | GI50 [1] [µM] | GI50 [2] [µM] | GI50 [3] [µM] | GI50 [4] [µM] | GI50 [5] [µM] | GI50 [10] [µM] | GI50 [7] [µM] | GI50 [8] [µM] | GI50 [9] [µM] | GI50 [6] [µM]
COc1ccc2ccccc2c1C1NC(=O)c2ccccc2N1 (stereo not drawn) | 8.42 | > 100 | 6.21 | 19.9 | > 100 | 1.67 | > 100 | > 100 | 8.78 | – | – | – | – | – | – | – | – | – | – | –
COC(=O)c1cccn1C(=O)n1cccc1 | > 100 | – | – | > 100 | > 100 | > 100 | – | > 100 | > 100 | > 100 | – | – | – | – | – | – | – | – | – | –
Oc1ccc2ccccc2c1N=Nc1ccsc1 | > 100 | – | > 100 | > 100 | > 100 | > 100 | – | > 100 | > 100 | > 100 | – | – | – | – | – | – | – | – | – | –
COC(=O)c1cc(O)c2cc3c(cc2c1-c1cc(OC)c(OC)c(OC)c1)OCO3 | > 100 | > 100 | > 100 | > 100 | > 100 | – | > 100 | > 100 | > 100 | 32 | 0.494 | 7.87 | 0.738 | 0.503 | 0.815 | 1.37 | 2.38 | 2.16 | 0.577 | –
CCOC(=O)N1CCC(=O)C(CNC23CC4CC(CC(C4)C2)C3)C1 (stereo not drawn) | > 100 | – | – | > 100 | 37.7 | 51.6 | – | > 100 | > 100 | – | – | – | – | – | – | – | – | – | – | –
Cn1c2c(c3ccc([N+](=O)[O-])cc3c1=O)C(=O)c1ccccc1-2 | > 100 | > 100 | > 100 | > 100 | > 100 | – | > 100 | > 100 | > 100 | > 100 | > 100 | > 100 | > 100 | > 100 | 70.3 | > 100 | > 100 | > 100 | > 100 | –
CC(=O)OC(C)(C)/C(C)=C/C(=O)O[C@H]1C(=O)O[C@@H]2C[C@H]3[C@H](C)C(=O)C(O[C@@H]4O[C@H](CO)[C@@H](O)[C@H](O)[C@H]4O)=C[C@]3(C)[C@H]3[C@@H](O)[C@H](O)[C@@]4(C(=O)O)OC[C@]32[C@@H]14 | > 100 | – | > 100 | > 100 | > 100 | > 100 | > 100 | > 100 | > 100 | > 100 | > 100 | – | > 100 | > 100 | 55.9 | > 100 | > 100 | > 100 | – | 48.5
O=c1ncc(F)cn1C1OC(CO)C(O)C1O (stereo not drawn) | > 100 | – | > 100 | > 51.2 | > 51.5 | > 46.8 | – | > 100 | > 56.6 | > 65.1 | – | – | – | – | – | – | – | – | – | –
COc1cc(C2SCC(=O)N2c2ncc(C)s2)cc(OC)c1OC (stereo not drawn) | > 50 | > 50 | > 50 | > 50 | – | > 50 | – | > 50 | > 50 | > 50 | 0.366 | 37.5 | 16.3 | 18.7 | – | 14.4 | – | 21.4 | 18.1 | 3.06
O=C(CCN1CCN(c2ccccc2)CC1)N1CCc2c([nH]c3ccccc23)C1c1cccnc1 (stereo not drawn) | 37.7 | – | 30.9 | 36.7 | 39.2 | 59 | – | 18.8 | 30 | 53.3 | – | – | – | – | – | – | – | – | – | –
COC(=O)C(C(=O)C(=O)Nc1ccc([N+](=O)[O-])cc1[N+](=O)[O-])c1nc2ccc(Cl)cc2[nH]c1=O (stereo not drawn) | > 100 | – | > 100 | > 100 | > 100 | – | – | > 100 | – | > 100 | – | – | – | – | – | – | – | – | – | –
O=C(c1ccccc1)C(CN1CCCCC1)c1ccccc1 (stereo not drawn) | 22 | 3.19 | 2.06 | 13.8 | 3.35 | 4.26 | – | 10.2 | 3.24 | 15.4 | 9.33 | 1.6 | 0.599 | 3.75 | 1.44 | 3.46 | – | 2.92 | 1.48 | 0.539
Nc1nnnn1CCO | > 100 | > 100 | > 100 | > 100 | > 100 | – | > 100 | > 100 | > 100 | > 100 | – | – | – | – | – | – | – | – | – | –
NC(=O)/N=C1/CCC2C3CCCC2C13 | – | – | – | > 100 | – | > 100 | – | > 100 | > 100 | > 100 | – | – | – | – | – | – | – | – | – | –
CCC[CH2][Sn]1([CH2]CCC)[O]CC(CN(C)Cc2ccccc2)[O]1 (stereo not drawn) | 29.4 | – | 20.3 | 26.8 | 9.21 | 23.7 | – | 11.4 | 17.8 | 16.2 | 15.1 | – | 8.29 | 13.9 | 2.72 | 3.47 | – | 3.63 | 5.75 | 4.31
S=C(Nc1ccc(-c2nc3ccccc3[nH]2)cc1)Nc1ccc(-c2nc3ccccc3[nH]2)cc1 | – | > 100 | > 100 | > 100 | > 100 | > 100 | > 100 | > 100 | > 100 | – | – | > 100 | 61.1 | 43.5 | 52.5 | – | > 100 | 32.4 | > 100 | 63.4
O=[P+](O)c1ccsc1 | > 100 | – | > 100 | – | – | – | – | > 100 | > 100 | – | – | – | – | – | – | – | – | – | – | –
C[C@]12CC/C(=N\O)C=C1CC[C@@H]1C2CC[C@@]2(C)C1CC[C@@H]2OC1CCCCO1 (stereo partly drawn) | > 100 | – | 43.2 | 33.2 | 41.4 | – | – | 42.2 | 32.4 | 33.2 | – | – | – | – | – | – | – | – | – | –
CC(C)([NH-])CO.CC(C)([NH-])CO.[Cl][Cd][Cl] | – | – | 41.4 | > 100 | 22.4 | 44.5 | – | 53.6 | 28.8 | – | – | – | 20.3 | 36.5 | 8.6 | – | – | 19.1 | 15.4 | 20
